Data from article PMC8800111 (The Journal of Biological Chemistry, 2021).
≈ marks a conversion by molar mass, not a printed value. Values belong to the molecule of their own block, whether it stands above or below them.

Tests used:
[1] = test system: STAT3 target genes in MDA-MB-468 cells; experiment: STAT3 target gene expression by qRT-PCR in MDA-MB-468 cells; type: cell-based, human; conditions: MDA-MB-468, 10 μM, 24 h
[2] = Solubility limit of folic acid in cell experiments; type: physicochemical; conditions: culture media; read-out: maximum concentration testable because of solubility limitations
[3] = test system: STAT3 transcriptional activity in U3A cells; experiment: STAT3-dependent luciferase reporter assay; type: cell-based, human
Experimental: STAT3-dependent luciferase activity was then used as a measure of STAT3 transcriptional activity.
(§1) Cells were stimulated with 10 ng/ml interleukin 6 (Peprotech) or 10 ng/ml OSM (Peprotech). Cells were stimulated for 15 min for whole cell lysate immunoblotting, 60 to 90 min for qRT–PCR, and 5 to 6 h for luciferase reporter assays.
U3A cells (3 × 10^3) were plated in white opaque 96-well plates and allowed to adhere overnight. For siRNA-mediated knockdown, cells were left in the incubator for 48 h. For drug-mediated inhibition, cells were pretreated with compound for 1 h. Cells were then stimulated with cytokine for 5 to 6 h to activate STAT3. Luciferase activity was detected using the Bright-Glo Luciferase Assay System (Promega) and quantitated using a Luminoskan Ascent Microplate Reader (Labsystems).

[4] = test system: STAT3 target genes in U3A cells; experiment: STAT3 target gene expression by qRT-PCR in U3A cells; type: cell-based, human
MDA-MB-468 cells = experiment: Viability assay (CellTiter-Glo, number of viable cells); type: cell-based, human; conditions: 300 μg/ml folinic acid, 48 h
Experimental: We specifically hypothesized that folinic acid would prevent pyrimethamine-mediated loss of viability and loss of STAT3 transcriptional activity by bypassing DHFR and restoring the folate-dependent processes required for STAT3 transcriptional activity. […] Since MDA-MB-468 cells are dependent on STAT3 activity for survival, loss of viability can reflect STAT3 inhibition.
Cells (3–5 × 10^3) were plated in white opaque 96-well plates. The next day, cells were treated as indicated. ATP levels were detected at the indicated time points as a proxy for number of viable cells using the CellTiter-Glo Luminescent Cell Viability Assay (Promega). Luminescence was measured using a Luminoskan Ascent Microplate Reader (Labsystems).

[5] = test system: STAT3 target genes in SKBR3 cells; experiment: STAT3 target gene expression by qRT-PCR in SKBR3 cells; type: cell-based, human; conditions: 300 μg/ml folinic acid
Experimental: as §1
Total RNA was extracted from cells using the RNeasy Mini Kit (Qiagen). Complementary DNA was generated using the TaqMan Reverse Transcription Reagents (Invitrogen). qPCR was performed in triplicate or quadruplicate using the Power SYBR Green PCR Master Mix (Invitrogen) on a 7500 Real-Time PCR System (Applied Biosystems) or a QuantStudio 6 Flex Real-Time PCR System (Applied Biosystems). Specificity of amplification was confirmed by melting curve analysis. Cycle threshold (CT) values for target genes were normalized to the endogenous reference gene GAPDH. Primer sequences (Table S3) were designed from the University of California Santa Cruz genome browser reference mRNA sequences using Primer3 ([43]).

[6] = test system: pSTAT3 in MDA-MB-468 cells; experiment: STAT3 tyrosine phosphorylation by immunoblotting; type: cell-based, human; conditions: 24 h, immunoblot
[7] = test system: polar metabolites of MDA-MB-468 cells; experiment: LC/MS-based metabolite profiling; type: cell-based, human; conditions: MDA-MB-468, 24 h, 10 μM pyrimethamine or 0.05 μM methotrexate

SMILES: Cc1cnc(Nc2ccc(OCCN3CCCC3)cc2)nc1Nc1cccc(S(=O)(=O)NC(C)(C)C)c1 [TG101, TG101348]
SOCS3 expression in the presence of folinic acid ([1]; 300 μg/ml folinic acid): still reduced | SOCS3 expression in the absence of folinic acid [1]: significantly reduced

solubility [2]: 10 µg/mL (≈ 22.7 µM)
SMILES: Nc1nc2ncc(CNc3ccc(C(=O)N[C@@H](CCC(=O)O)C(=O)O)cc3)nc2c(=O)[nH]1 [folic acid]

SMILES: Nc1nc(=O)c2c([nH]1)NCC(CNc1ccc(C(=O)N[C@@H](CCC(=O)O)C(=O)O)cc1)N2C=O (mixture of isomers) [folinic acid]
rescue of the effect of methotrexate on STAT3-dependent luciferase ([3]; 1 μM methotrexate): able to rescue | effect on TG101-mediated loss of STAT3-dependent luciferase ([3]; 10 μM TG101): no effect | effect on the ability of pyrimethamine to inhibit OSM-stimulated STAT3 transcriptional activity ([3]; 10 μM pyrimethamine, tested concentrations of folate): significantly reduced | effect on pyrimethamine-mediated loss of OSM-stimulated BCL6 expression ([4]; 300 μg/ml folinic acid): completely prevented | effect on TG101-dependent loss of viable cells (MDA-MB-468 cells): very little effect | effect on pyrimethamine-dependent and methotrexate-dependent decreases in the number of viable cells (MDA-MB-468 cells): almost completely prevented | effect on pyrimethamine-mediated loss of OSM-stimulated BCL6 expression [5]: partially prevented

SMILES: Cc1cn([C@H]2C[C@H](O)[C@@H](CO)O2)c(=O)[nH]c1=O [thymidine]
effect on pyrimethamine inhibition of STAT3 transcriptional activity (viable cells, luciferase, target genes) ([3]; thymidine added with 10 μM pyrimethamine): reduced the ability | rescue of methotrexate-mediated loss of STAT3 activity ([3]; thymidine added with methotrexate): unable to rescue

SMILES: CN(Cc1cnc2nc(N)nc(N)c2n1)c1ccc(C(=O)N[C@@H](CCC(=O)O)C(=O)O)cc1 [methotrexate]
OSM-stimulated STAT3 activity (luciferase) ([3]; 0.5 and 1 μM, 1 h pretreatment, OSM 5 h): decreased | total / constitutive STAT3 tyrosine phosphorylation (pSTAT3) [6]: decrease | OSM-stimulated expression of BCL6 and STAT3 ([4]; 1 μM 1 h, 10 ng/ml OSM 90 min): significantly reduced | deoxyuridine monophosphate level compared with DMSO or ruxolitinib [7]: significantly accumulated | purine synthesis intermediates 5-aminoimidazole-4-carboxamide ribonucleotide and glycineamide ribonucleotide [7]: significant increase
